Patent publication US11369601B2, “Prophylactic or therapeutic agent for pulmonary hypertension comprising mebendazole and/or itraconazole or salt thereof” (TOHOKU UNIVERSITY, priority 2017, dated 2022)
“Also recorded” adds a separate entry of the source.

Assays:
[1] = test system: pulmonary artery smooth muscle cells; assay: Excessive proliferation of pulmonary artery smooth muscle cells (compound investigation); type: cell-based
Description: Under such circumstances, the inventors of the present invention have investigated thousands of kinds of compounds. […] The present invention is based on such novel findings.

[2] = test system: Hypoxia-induced pulmonary hypertension mice; assay: Hypoxia-induced pulmonary hypertension mice, right heart catheterization; type: in vivo, mice (C57/BL6); settings: hypoxia (10% oxygen) 3 weeks, intravenous once daily, itraconazole 20 mg/kg/day, mebendazole 25 mg/kg/day, vs vehicle; for right ventricular systolic pressure: FIG. 1
Procedure: (§1) Hypoxia-induced pulmonary hypertension mice serving as a model generally used in an animal experiment for pulmonary hypertension were intravenously administered itraconazole or mebendazole. Specifically, first, 8-week-old male wild-type mice (C57/BL6 mice, n=10 per group) were housed in a transparent acrylic box with an oxygen concentration controlled to 10% using a hypoxia generator (Teijin Limited, Japan) under a 12 h light and dark cycle. The mice were stimulated by hypoxia for 3 weeks, and in this period, were intravenously injected with itraconazole (the following solution was used as itraconazole: 100 mg of itraconazole was dissolved in 6.7 ml of dimethyl sulfoxide, and the solution of itraconazole in dimethyl sulfoxide was mixed with ultrapure water (mQ or ultrapure water) to prepare a 100 ml solution) once daily at a dose of 20 mg/kg/day. As a Vihicle group, the following test was performed: the mice were stimulated by hypoxia in the same manner as described above except that the mice were intravenously injected with a 1:15 (V/V) mixed solution of dimethyl sulfoxide and ultrapure water in place of itraconazole as a diet. In addition, a mebendazole administration test for hypoxia-induced pulmonary hypertension mice was performed in the same manner as described above except that the mice were intravenously injected with mebendazole in place of itraconazole (the following solution was used as mebendazole: 100 mg of mebendazole was dissolved in 6.7 ml of dimethyl sulfoxide, and the solution of mebendazole in dimethyl sulfoxide was mixed with ultrapure water (mQ or ultrapure water) to prepare a 100 ml solution) at a dose of 25 mg/kg/day.
After the hypoxic stimulation for 3 weeks, a 1.2-Fr catheter (SciSense Inc., Ontario, Canada) was inserted in the jugular vein of the mice under isoflurane anesthesia and advanced into the right ventricle to measure a right ventricular systolic pressure. The average body weights of the Vehicle group, the itraconazole administration group, and the mebendazole administration group before the test were 16.3±0.2 g, 16.8±0.3 g, and 16.8.±0.3 g, respectively. In addition, the average body weights of the Vehicle group, the itraconazole administration group, and the mebendazole administration group after the test were 18.±0.2 g, 17.2±0.2 g, and 17.5±0.2 g, respectively.

[3] = Body weight of hypoxia-induced pulmonary hypertension mice; type: in vivo, mice (C57/BL6); settings: for average body weight after the test: after 3 weeks hypoxia and once daily intravenous dosing, itraconazole 20 mg/kg/day, mebendazole 25 mg/kg/day
Procedure: as §1
After the hypoxic stimulation for 3 weeks, a 1.2-Fr catheter (SciSense Inc., Ontario, Canada) was inserted in the jugular vein of the mice under isoflurane anesthesia and advanced into the right ventricle to measure a right ventricular systolic pressure. […]

[4] = test system: Sugen/hypoxia-induced hypertension rat model; assay: Sugen/hypoxia-induced pulmonary hypertension rat model, RVSP and RVH; type: in vivo, rats (Sprague-Dawley)
Procedure: In this test, a vehicle treatment group was used as a control. A Sugen/hypoxia-induced hypertension rat model was used to assess pulmonary hypertension (PH) (Non-patent Literature 2). In order to assess the development of pulmonary hypertension, right ventricular systolic pressure (RVSP) and right ventricular hypertrophy (RVH) were measured (Non-patent Literatures 2 to 4).
For right heart catheterization, a 1.4-F (for rats) pressure measurement catheter (Transonic Scisense) was inserted into the right jugular vein and advanced into the right ventricle to measure RVSP (Non-patent Literature 5).
In the Sugen/hypoxia model, rats (Sprague-Dawley, male, 6-week-old) were injected subcutaneously with a VEGF-receptor inhibitor SU5416 (Sigma-Aldrich, St Louis, Mo.) (20 mg per kg body weight) under isoflurane anesthesia and were then exposed to hypoxia (10% O2) for 3 weeks. After the indicated period of treatment below, the rats were anesthetized with isoflurane (1.5%) to perform right heart catheterization. All data were analyzed using the PowerLab data acquisition system (AD Instruments, Bella Vista, Australia) and were averaged over 50 sequential beats (Non-patent Literatures 2 to 5).
Hearts were dissected and the right ventricular free wall (RV) was removed from the left ventricle (LV) and septum. The ratio of right ventricular free wall (RV) weight to left ventricle plus septum (LV+Septum) weight [RV/(LV+S)] was measured to assess the extent of RVH (Non-patent Literature 2).
Rats (Sprague-Dawley, male, 6-week-old) were injected subcutaneously with a VEGF-receptor inhibitor SU5416 (Sigma-Aldrich) (20 mg per kg body weight) under isoflurane anesthesia and were then exposed to hypoxia (10% 02) for 3 weeks (hypoxia+SU5416). On day 21, the rats were randomized to be intravenously injected with mebendazole (25 mg per kg body weight) or vehicle (the rats were administered dimethyl sulfoxide in place of mebendazole solution) once daily under normoxia (21% O2) for 2 weeks. The vehicle administration group is expressed as vehicle control. […] Thus, the development of PH was assessed.

[5] = Body weight of rats with Sugen/hypoxia-induced PH; type: in vivo, rats (Sprague-Dawley); settings: mebendazole 25 mg per kg intravenously once daily for 14 days, vs vehicle control
Procedure: Rats (Sprague-Dawley, male, 6-week-old) were injected subcutaneously with a VEGF-receptor inhibitor SU5416 (Sigma-Aldrich) (20 mg per kg body weight) under isoflurane anesthesia and were then exposed to hypoxia (10% 02) for 3 weeks (hypoxia+SU5416). On day 21, the rats were randomized to be intravenously injected with mebendazole (25 mg per kg body weight) or vehicle (the rats were administered dimethyl sulfoxide in place of mebendazole solution) once daily under normoxia (21% O2) for 2 weeks. The vehicle administration group is expressed as vehicle control. […] On day 35, the rats were anesthetized with isoflurane (1.0%) to measure RVSP and RVH. Thus, the development of PH was assessed.

[6] = hypoxia+SU5416 3 weeks, then mebendazole 25 mg per kg intravenously once daily for 2 weeks under normoxia, day 35, vs vehicle control, FIG. 2

SMILES	excessive proliferation of pulmonary artery smooth muscle cells [1]	right ventricular hypertrophy [2]	right ventricular systolic pressure [2]	average body weight after the test [3]	average body weight before the test ([3]; before the test (baseline), mice n=10 per group)	PH in the animal model in vivo ([4]; Sugen/hypoxia rats, mebendazole 25 mg per kg intravenously once daily for 14 days)	right ventricular hypertrophy (RVH), RV/(LV+S) [4, 6]	right ventricular systolic pressure (RVSP) [4, 6]	body weight [5]
CCC(C)n1ncn(-c2ccc(N3CCN(c4ccc(OC[C@H]5CO[C@](Cn6cncn6)(c6ccc(Cl)cc6Cl)O5)cc4)CC3)cc2)c1=O (stereo partly shown) [itraconazole]	suppresses excessive proliferation	Significant reductions	Significant reductions	17.2 ± 0.2 g	16.8 ± 0.3 g				
COC(=O)Nc1nc2ccc(C(=O)c3ccccc3)cc2[nH]1 [mebendazole, methyl (5-benzoyl-1H-benzo[d]imidazol-2-yl)carbamate]	suppresses excessive proliferation	Significant reductions	Significant reductions	17.5 ± 0.2 g		ameliorated	reduced	reduced	no significant difference; also recorded: no influence
